In PMC3706879, “The neurotrophic compound J147 reverses cognitive impairment in aged Alzheimer's disease mice” (Alzheimer's Research & Therapy, 2013):

Tests used:
C57BL/6J mice = experiment: Y-maze, scopolamine induced memory impairment; type: in vivo; settings: scopolamine 1 mg/kg i.p.; J147 200 ppm, donepezil 20 ppm in food for two weeks
Method: A total of 60 male mice aged eight weeks were housed 4 per cage and were divided into five groups with 12 mice per group. Treatments were administered in the food (TestDiet® 5015, Richmond, IN, USA) for a period of two weeks before commencement of behavioral testing. […] Following two weeks of treatment, memory impairment was induced by intraperitoneal (i.p.) injection of scopolamine (1 mg/kg) 30 minutes prior to each of the following behavioral tests: Y-maze, probe trial of the water maze and contextual and cued fear conditioning. Mice were allowed to rest for two days between each behavior test. All mice received scopolamine except for one of the control groups, which received saline as a control. Mice were sacrificed 24 hours after the last behavioral test for tissue harvesting.
Spontaneous alternation, the tendency to alternate free choices in a Y-maze (three arms), is a model for studying short term working memory in mice. Mice were injected with 1 mg/kg of scopolamine or saline 30 minutes prior to testing. Then each mouse was placed in the center of the Y and arm entries were recorded by video camera and the order of entries were recorded for the first 15 entries. Spontaneous alternations are defined as consecutive triplets of different arm choices.

normal rodents = test system: normal rodents; parameters: method as in PMID 22194796; settings: cited from earlier work
hERG = hERG (Homo sapiens, UniProt Q12809)
Aβ1-40 and Aβ1-42 = experiment: Aβ ELISA of hippocampus of aged huAPP/PS1 mice; type: in vivo; settings: three months J147
Method: The APPswe/PS1ΔE9 transgenic mice have been previously characterized. The line 85 mice carry two transgenes, the mouse/human chimeric APP/Swe, linked to Swedish FAD and human PS1ΔE9. At 20 months of age both male and female transgenic mice were fed a high fat diet (Harlan Tekland, Madison, WI, USA) with and without J147 (200 ppm, 10 mg/kg/day). Treatment continued for three months and was followed by behavior testing and sacrifice of mice for tissue harvesting. […] (Data not shown).
Hippocampal and entorhinal cortex tissue samples were homogenized in 10 volumes of RIPA lysis buffer (50 mM Tris, pH 7.5, 150 mM NaCl, 0.1% sodium dodecyl sulfate and 0.5% deoxycholate, and 1% NP40) containing a cocktail of protease and phosphatase inhibitors ([…] each of pepstatin A, aprotinin, phosphoramidon, and leupeptin; 0.5 mM 4-(2-aminoethyl) benzenesulfonyl fluoride hydrochloride; 1 mM EGTA; 5 mM fenvalerate; and 5 mM cantharidin). Samples were sonicated (2 × 10 s) and centrifuged at 100,000 × g for 60 minutes at 4°C. Protein concentrations in the cell extracts were determined using the BCA protein assay (Pierce supplied by Thermo Fisher Scientific, Rockford, IL, USA). Equal amounts of protein were solubilized in 2.5x SDS-sample buffer, separated on 12% SDS-polyacrylamide gels, transferred to Immobulin P and immunoblotted with the antibodies indicated in the Materials section. For Western blots, protein levels were normalized to actin levels. An unpaired t test was performed to compare between two groups at a single time point. When comparing multiple groups, one-way ANOVA followed by a Tukey's post hoc test was used. All statistical analysis was conducted using GraphPad Instat software.
Aβ 1 to 40 and 1 to 42 levels in hippocampal lysate were analyzed using the Aβ1-40 and Aβ1-42 ELISA kits from Invitrogen (# KHB3481 and # KHB3442, respectively). All kit reagents were brought to room temperature before use. Standards were prepared according to the manufacturer's guidelines and samples were diluted as follows; RIPA fractions were diluted 1:10 for both Aβ1-40 and Aβ1-42; and RIPA insoluble fractions were diluted 1:2,000 for Aβ1-40 and 1:5,000 for Aβ1-42. A total of 50 μl of Aβ peptide standards and samples were added in duplicate to 96-well plates pre-coated with mAb to the NH2 terminus region of Aβ. Plates were incubated at 4°C overnight and then 50 μl of Hu Aβ40 or Aβ42 detection antibody was added to each well except the chromogen blanks. […] Stop solution was then added at 100 μl to each well followed by reading the absorbance of each well at 450 nm. […] The concentrations of the samples were calculated from the standard curve and multiplied by the dilution factor.

BDNF = test system: BDNF; parameters: method as in PMID 22194796; settings: normal rats; cited from earlier work
PC12 cells = experiment: neurite outgrowth of PC12 cells with HT22 growth conditioned medium; type: cell-based
Method: The HT22 cell line was used to make growth conditioned medium. HT22 is a nerve cell line derived from mouse brain and is widely used to study nerve cell physiology. To make HT22 growth conditioned medium, cells were grown in DMEM with 10% fetal calf serum. Then, semiconfluent cultures were washed three times with serum-free DMEM and cultured overnight in a reduced volume of DMEM in the presence or absence of 100 nM J147. The following day, the growth conditioned medium was collected and centrifuged at 10,000 × g to remove detached cells. To determine the effect of the conditioned medium on NGF-induced neurite outgrowth, PC12 cells were dissociated and plated on polyornithine-coated tissue culture dishes in the following conditions: 1) HT22 conditioned medium, 2) J147 treated HT22 conditioned medium, 3) DMEM alone plus J147, 4) DMEM plus NGF at 50 nanograms per ml, 5) J147 treated HT22 conditioned medium pre-incubated for one hour with 10 μg/ml anti-NGF and N2 supplement (Invitrogen). N2 supplement, which contains transferrin, was used in the presence of antibody to minimize the possibility that antibody protein non-specifically modified cell-substrate from adhesion and therefore neurite outgrowth. Phase contrast photographs were taken 24 hrs later.

Sequence of hERG (Q12809 whole entry): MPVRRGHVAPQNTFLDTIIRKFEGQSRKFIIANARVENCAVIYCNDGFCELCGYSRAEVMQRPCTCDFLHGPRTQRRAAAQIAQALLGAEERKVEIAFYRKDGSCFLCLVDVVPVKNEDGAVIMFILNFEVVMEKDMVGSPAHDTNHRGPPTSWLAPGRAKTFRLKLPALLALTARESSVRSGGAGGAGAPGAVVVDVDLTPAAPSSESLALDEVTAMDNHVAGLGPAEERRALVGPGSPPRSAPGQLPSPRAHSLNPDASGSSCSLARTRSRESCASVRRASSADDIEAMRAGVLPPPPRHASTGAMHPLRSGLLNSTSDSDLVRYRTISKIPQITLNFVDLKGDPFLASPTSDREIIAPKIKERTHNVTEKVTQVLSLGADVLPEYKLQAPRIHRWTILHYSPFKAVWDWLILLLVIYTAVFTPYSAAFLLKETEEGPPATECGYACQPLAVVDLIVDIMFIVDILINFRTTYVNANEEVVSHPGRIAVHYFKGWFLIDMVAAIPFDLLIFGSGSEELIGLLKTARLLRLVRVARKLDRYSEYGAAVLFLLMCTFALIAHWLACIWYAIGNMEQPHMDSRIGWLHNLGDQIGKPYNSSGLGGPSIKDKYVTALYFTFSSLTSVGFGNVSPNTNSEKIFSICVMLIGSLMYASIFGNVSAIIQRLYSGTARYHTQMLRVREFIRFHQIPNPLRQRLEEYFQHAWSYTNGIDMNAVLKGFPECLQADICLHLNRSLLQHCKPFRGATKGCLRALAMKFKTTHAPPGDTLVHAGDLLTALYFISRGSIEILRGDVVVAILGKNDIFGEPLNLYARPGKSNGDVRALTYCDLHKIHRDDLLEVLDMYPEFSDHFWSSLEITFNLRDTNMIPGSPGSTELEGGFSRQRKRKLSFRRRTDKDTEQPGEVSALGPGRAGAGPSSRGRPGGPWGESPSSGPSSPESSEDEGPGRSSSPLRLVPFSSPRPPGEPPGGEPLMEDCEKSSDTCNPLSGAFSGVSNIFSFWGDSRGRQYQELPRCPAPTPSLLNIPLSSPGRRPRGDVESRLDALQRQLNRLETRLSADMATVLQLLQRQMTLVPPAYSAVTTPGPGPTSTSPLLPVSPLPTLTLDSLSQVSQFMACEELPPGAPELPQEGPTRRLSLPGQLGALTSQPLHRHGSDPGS

COc1cccc(/C=N/N(C(=O)C(F)(F)F)c2ccc(C)cc2C)c1 [J147, (E)-N-(2,4-dimethylphenyl)-2,2,2-trifluoro-N'-(3methoxybenzyli-dene) acetohydrazide]
short-term working memory (spontaneous alternations, Y maze) (C57BL/6J mice): improve short-term working memory | penetration in the Caco-2 assay (Caco-2): moderate and symmetrical penetration | memory in normal rodents (normal rodents): facilitates memory in normal rodents | hERG assay (hERG): negative | Aβ1-40 levels, RIPA insoluble fraction (Aβ1-40 and Aβ1-42): reduced | Aβ1-42 levels, RIPA insoluble fraction (Aβ1-40 and Aβ1-42): not altered | RIPA soluble Aβ1-40 (Aβ1-40 and Aβ1-42): decreased | RIPA soluble Aβ1-42 (Aβ1-40 and Aβ1-42): decreased | levels of BDNF in the hippocampus (BDNF): increases the levels of BDNF | neurite outgrowth, fresh DMEM plus J147 (PC12 cells; 100 nM J147 in fresh DMEM): did not | neurite outgrowth, conditioned medium from J147 treated HT22 cells (PC12 cells; HT22 cells incubated overnight with 100 nM J147, 24 hrs): promoted neurite outgrowth
